# In ChEMBL document CHEMBL5442379, “ASAP - SARS-CoV-2 nsp3 macrodomain single point” (2024):
# Molecular target: Replicase polyprotein 1ab (Severe acute respiratory syndrome coronavirus 2) (UniProt P0DTD1)
# [1] = Concentration 50.0 uM, Number of replicates 2.0, Standard deviation 1.985 %
# Description: Functional biochemical assay to identify treatments for viral infectious disease that targets SARS-COV-2 nsp3 macrodomain, whereby the mechanism of action displaces an ADP-Ribose modified peptide from the binding site. Utilizing a time-resolved fluorescence method to measure binding by reading the emitted fluorescence intensity in two wavelengths.
structure (smiles),measurement,setting,value
CCC(CC)(C(=O)Nc1nc(C)nc2[nH]ccc12)C(=O)OC(C)(C)C,inhibition,"Concentration 50.0 uM, Number of replicates 2.0, Standard deviation 5.081 %",-9.46%
same,inhibition,"Concentration 100.0 uM, Number of replicates 2.0, Standard deviation 0.41 %",-4.71%
Cc1cc(CNC(=O)c2cnn3ccc(C4CCN(C(=O)c5ccccc5)CC4)cc23)n(C)n1,inhibition,"Concentration 49.75 uM, Number of replicates 2.0, Standard deviation 3.014 %",-5.51%
same,inhibition,"Concentration 99.5 uM, Number of replicates 2.0, Standard deviation 0.205 %",-8.12%
Cc1ncc(NCc2cnc3c(c2)NC(=O)CO3)cc1Cl,inhibition,"Concentration 50.0 uM, Number of replicates 2.0, Standard deviation 2.461 %",-0.368%
O=C(Nc1cnc2[nH]ncc2c1)c1ccc(Oc2cccc(Br)c2)nc1,inhibition,"Concentration 50.0 uM, Number of replicates 2.0, Standard deviation 1.64 %",-0.183%
Cn1c(C(=O)NCCn2cccc2)cc2c(=O)n3ccccc3nc21,inhibition,"Concentration 50.0 uM, Number of replicates 2.0, Standard deviation 2.478 %",2.26%
c1cnc([C@@H]2CCN(c3ncnc4[nH]ccc34)C2)cn1,inhibition,"Concentration 50.0 uM, Number of replicates 2.0, Standard deviation 2.663 %",-1.7%
Cc1ccc(NC(=O)c2cnn3ccc(C4CCN(C(=O)c5ccccc5)CC4)cc23)cc1C(=O)O,inhibition,"Concentration 49.75 uM, Number of replicates 2.0, Standard deviation 0.305 %",-1.05%
same,inhibition,"Concentration 99.5 uM, Number of replicates 2.0, Standard deviation 2.043 %",-0.624%
O=C(CCN(Cc1cccc(Cl)c1)C(=O)[C@H]1CCOC1)N1CCNCC1,inhibition,"Concentration 49.75 uM, Number of replicates 2.0, Standard deviation 12.724 %",4.08%
same,inhibition,"Concentration 99.5 uM, Number of replicates 2.0, Standard deviation 2.436 %",-3.96%
O=C(c1ccccc1)N1CCC(c2ccn3ncc(C(=O)N4CCn5ncnc5C4)c3c2)CC1,inhibition,"Concentration 49.75 uM, Number of replicates 2.0, Standard deviation 0.529 %",-3.77%
same,inhibition,"Concentration 99.5 uM, Number of replicates 2.0, Standard deviation 3.194 %",-3.52%
CN(C)[C@@H]1CCCN(C(=O)c2cnc3c(c2)c(=O)[nH]c(=O)n3C)CC1,inhibition,"Concentration 50.0 uM, Number of replicates 2.0, Standard deviation 1.745 %",-8.97%
O=C(N[C@@H](C(=O)O)[C@@H](O)Cc1ccccc1)c1ncnc2[nH]ccc12,inhibition,"Concentration 49.75 uM, Number of replicates 2.0, Standard deviation 1.324 %",3.79%
same,inhibition,"Concentration 99.5 uM, Number of replicates 2.0, Standard deviation 4.676 %",12.3%
Fc1ccc(OC(F)F)c(CNc2cnc3[nH]ncc3c2)c1,inhibition,"Concentration 50.0 uM, Number of replicates 2.0, Standard deviation 3.077 %",-6.67%
O=C(O)c1ccsc1C(=O)N1CCC(c2ccn3ncc(C(=O)N4CCCCC4)c3c2)CC1,inhibition,"Concentration 49.75 uM, Number of replicates 2.0, Standard deviation 4.674 %",45%
same,inhibition,"Concentration 99.5 uM, Number of replicates 2.0, Standard deviation 0.647 %",61.2%
O=C(NC1CCC(F)(F)CC1)c1ncnc2[nH]ccc12,inhibition,"Concentration 49.75 uM, Number of replicates 2.0, Standard deviation 1.299 %",-3.47%
same,inhibition,"Concentration 99.5 uM, Number of replicates 2.0, Standard deviation 1.382 %",-5.78%
c1ccc2c(-c3c[nH]c4ncccc34)n[nH]c2c1,inhibition,"Concentration 50.0 uM, Number of replicates 2.0, Standard deviation 4.4 %",-7.25%
O=C1NC[C@@H](C(=O)N(CCC(=O)N2CCNCC2)Cc2cccc(Cl)c2)O1,inhibition,"Concentration 49.75 uM, Number of replicates 2.0, Standard deviation 2.173 %",0.125%
same,inhibition,"Concentration 99.5 uM, Number of replicates 2.0, Standard deviation 10.437 %",5.24%
O=C(NCCn1cncn1)c1cnn2ccc(C3CCN(C(=O)c4ccccc4)CC3)cc12,inhibition,"Concentration 49.75 uM, Number of replicates 2.0, Standard deviation 1.365 %",-3.7%
same,inhibition,"Concentration 99.5 uM, Number of replicates 2.0, Standard deviation 1.7 %",-2.57%
c1nc(N2CC[C@@H](n3cncn3)C2)c2cc[nH]c2n1,inhibition,"Concentration 50.0 uM, Number of replicates 2.0, Standard deviation 1.464 %",-1.54%
O=C(CCN(Cc1cccc(Cl)c1)C(=O)c1ncccc1Cl)N1CCNCC1,inhibition,"Concentration 49.75 uM, Number of replicates 2.0, Standard deviation 1.117 %",2.75%
same,inhibition,"Concentration 99.5 uM, Number of replicates 2.0, Standard deviation 8.572 %",7.52%
O=C(c1nnn[nH]1)N1CCC(c2ccn3ncc(C(=O)N4CCCCC4)c3c2)CC1,inhibition,"Concentration 49.75 uM, Number of replicates 2.0, Standard deviation 0.79 %",55.1%
same,inhibition,"Concentration 99.5 uM, Number of replicates 2.0, Standard deviation 0.232 %",69%
CC(=O)Nc1ccc(S(=O)(=O)NNc2ncnc3sccc23)cc1,inhibition,"Concentration 50.0 uM, Number of replicates 2.0, Standard deviation 2.273 %",5.36%
O=C(NCc1c[nH]nn1)c1cnn2ccc(C3CCN(C(=O)c4ccccc4)CC3)cc12,inhibition,"Concentration 49.75 uM, Number of replicates 2.0, Standard deviation 0.251 %",-2.86%
same,inhibition,"Concentration 99.5 uM, Number of replicates 2.0, Standard deviation 8.51 %",2.17%
C=CCn1c(Sc2ncnc3[nH]ccc23)nc2sccc2c1=O,inhibition,"Concentration 50.0 uM, Number of replicates 2.0, Standard deviation 0.219 %",6.3%
Cc1nc(NC(=O)Cn2cnc3ccccc3c2=O)c2cc[nH]c2n1,inhibition,"Concentration 49.75 uM, Number of replicates 2.0, Standard deviation 4.18 %",-4.07%
same,inhibition,"Concentration 99.5 uM, Number of replicates 2.0, Standard deviation 1.131 %",-4.89%
c1ccc2sc([C@@H]3CCCN(c4ncnc5[nH]ccc45)C3)nc2c1,inhibition,"Concentration 50.0 uM, Number of replicates 2.0, Standard deviation 1.364 %",-0.779%
C[C@]1(C(=O)O)CCCN1C(=O)c1ncnc2[nH]ccc12,inhibition,"Concentration 50.0 uM, Number of replicates 2.0, Standard deviation 5.501 %",-5.29%
same,inhibition,"Concentration 100.0 uM, Number of replicates 2.0, Standard deviation 0.477 %",5.67%
O=C(Nc1ccccc1)Nc1ccc(C(=O)Nc2ncccc2F)cc1,inhibition,"Concentration 49.75 uM, Number of replicates 2.0, Standard deviation 1.252 %",4.59%
same,inhibition,"Concentration 99.5 uM, Number of replicates 2.0, Standard deviation 5.725 %",10.2%
O=C(O)c1cnc(C(=O)N2CCC(c3ccn4ncc(C(=O)N5CCCCC5)c4c3)CC2)cn1,inhibition,"Concentration 49.75 uM, Number of replicates 2.0, Standard deviation 0.482 %",27.5%
same,inhibition,"Concentration 99.5 uM, Number of replicates 2.0, Standard deviation 1.164 %",46.4%
Cc1ncc(NCc2csc(-c3ccccn3)n2)cn1,inhibition,"Concentration 49.75 uM, Number of replicates 2.0, Standard deviation 3.788 %",-5.23%
same,inhibition,"Concentration 99.5 uM, Number of replicates 2.0, Standard deviation 2.632 %",-4.49%
CN(Cc1cn(C)nn1)C(=O)c1ccc(NC(=O)Nc2ccccc2)cc1,inhibition,"Concentration 49.75 uM, Number of replicates 2.0, Standard deviation 0.56 %",0.883%
same,inhibition,"Concentration 99.5 uM, Number of replicates 2.0, Standard deviation 3.63 %",0.566%
O=C(Nc1ccccc1)Nc1ccc(C(=O)N2CCc3ccncc32)cc1,inhibition,"Concentration 49.75 uM, Number of replicates 2.0, Standard deviation 6.741 %",-4.3%
same,inhibition,"Concentration 99.5 uM, Number of replicates 2.0, Standard deviation 1.961 %",0.234%
CC(C)[C@@H](CCN(C)C(=O)c1nn2cccnc2c1Cl)Nc1ncnc2[nH]ccc12,inhibition,"Concentration 49.75 uM, Number of replicates 2.0, Standard deviation 6.794 %",0.844%
same,inhibition,"Concentration 99.5 uM, Number of replicates 2.0, Standard deviation 0.494 %",1.65%
CN1CCOc2cccc(NC(=O)Nc3cnc4[nH]ncc4c3)c21,inhibition,[1],-6.54%
c1ccc(-c2n[nH]cc2CNc2cnc3[nH]ncc3c2)cc1,inhibition,"Concentration 50.0 uM, Number of replicates 2.0, Standard deviation 1.159 %",-2.04%
Cc1nc(NC(=O)c2ccnn2C(C)C)c2cc[nH]c2n1,inhibition,"Concentration 50.0 uM, Number of replicates 2.0, Standard deviation 4.637 %",-2.64%
same,inhibition,"Concentration 100.0 uM, Number of replicates 2.0, Standard deviation 4.768 %",-4.35%
Cn1nc(NCc2cc3c(=O)[nH]ccc3o2)c2nccnc21,inhibition,[1],-1.01%
Cc1nc(Nc2cnn(CCO)c2)c2cc[nH]c2n1,inhibition,"Concentration 50.0 uM, Number of replicates 2.0, Standard deviation 4.582 %",-6.15%
CN(CCOc1ccccc1)c1ncnc2[nH]ccc12,inhibition,"Concentration 50.0 uM, Number of replicates 2.0, Standard deviation 4.668 %",-2.26%
c1ccc(Cn2ncc3c2CCC[C@@H]3Nc2ncnc3[nH]ccc23)cc1,inhibition,"Concentration 50.0 uM, Number of replicates 2.0, Standard deviation 3.356 %",5.85%
NS(=O)(=O)c1ccccc1CNc1ncnc2[nH]ccc12,inhibition,"Concentration 50.0 uM, Number of replicates 2.0, Standard deviation 10.219 %",3.66%
O=C(OCc1ncccc1Cl)c1ncnc2[nH]ccc12,inhibition,"Concentration 50.0 uM, Number of replicates 2.0, Standard deviation 2.408 %",5.06%
O=C(Nc1cnc2[nH]ncc2c1)C1CCN(c2ccc3nncn3n2)CC1,inhibition,"Concentration 50.0 uM, Number of replicates 2.0, Standard deviation 15.88 %",17%
O=C(c1ccccc1)N1CCC(c2ccn3ncc(C(=O)N4CCCC[C@H](O)C4)c3c2)CC1,inhibition,"Concentration 49.75 uM, Number of replicates 2.0, Standard deviation 40.732 %",17.8%
same,inhibition,"Concentration 99.5 uM, Number of replicates 2.0, Standard deviation 41.407 %",29.8%
CCN(Cc1cccnc1)C(=O)c1ccc(NC(=O)Nc2ccccc2)cc1,inhibition,"Concentration 49.75 uM, Number of replicates 2.0, Standard deviation 4.414 %",3.63%
same,inhibition,"Concentration 99.5 uM, Number of replicates 2.0, Standard deviation 0.745 %",-7.09%
Cc1cc(NCc2ncccc2O)ncn1,inhibition,"Concentration 50.0 uM, Number of replicates 2.0, Standard deviation 4.706 %",-3.33%
CC(C)(CCNc1ncnc2[nH]ccc12)S(C)(=O)=O,inhibition,"Concentration 50.0 uM, Number of replicates 2.0, Standard deviation 3.874 %",0.75%
COCc1cc(CC(=O)Nc2ncnc3[nH]cnc23)no1,inhibition,"Concentration 50.0 uM, Number of replicates 2.0, Standard deviation 0.215 %",2.97%
C[C@@H](NC(=O)c1cnn2ccc(C3CCN(C(=O)c4ccccc4)CC3)cc12)c1cc[nH]n1,inhibition,"Concentration 49.75 uM, Number of replicates 2.0, Standard deviation 1.723 %",-4.99%
same,inhibition,"Concentration 99.5 uM, Number of replicates 2.0, Standard deviation 0.833 %",-2.77%
CC[C@@H]1C[C@@H](C(=O)Nc2ncnc3[nH]c(C)c(C)c23)CCO1,inhibition,"Concentration 50.0 uM, Number of replicates 2.0, Standard deviation 1.684 %",12.1%
CC(C)n1cc(S(=O)(=O)Nc2cnc3[nH]ncc3c2)cn1,inhibition,"Concentration 50.0 uM, Number of replicates 4.0, Standard deviation 3.956 %",1.55%
CC(C)[C@H]1CN(c2ncnc3[nH]ccc23)[C@H]1C(C)C,inhibition,"Concentration 49.75 uM, Number of replicates 2.0, Standard deviation 1.709 %",0.348%
same,inhibition,"Concentration 99.5 uM, Number of replicates 2.0, Standard deviation 1.351 %",-2.2%
Cn1cc([C@@H](Nc2ncnc3[nH]ccc23)C2CCC2)cn1,inhibition,"Concentration 49.75 uM, Number of replicates 2.0, Standard deviation 3.794 %",78.1%
same,inhibition,"Concentration 99.5 uM, Number of replicates 2.0, Standard deviation 1.201 %",91%
